Measured values from patent US7915291B2, “Hepatitis C virus inhibitors” (Bristol-Myers Squibb Company, priority 2002, dated 2011).

Legend:
[1] = tested on: HCV replicon in Huh7 cells; test: HCV replicon cell-based assay; parameters: species or system HCV strain 1B; conditions: Hepatitis C virus, Huh-7; HCV replicon, Huh7 cells; read-out: EC50 range
[2] = biological target: HCV NS3/4A protease complex, BMS strain (UniProt P27958, C1454S/C1711G, species not given/STRAIN_BMS); test: Recombinant HCV NS3/4A protease complex FRET peptide assay (BMS strain); format: biochemical, HCV genotype 1a; conditions: NS3/4A BMS strain; read-out: IC50 range
Procedure, shortened: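 Recombinant BMS-strain NS3/4A (His-tagged NS4A with three-lysine tail, E. coli) at 2-3 nM preincubated 1 min with compound, then 2 μM ester-linked NS4A/NS4B-based FRET peptide added. Fluorescence followed in real time ~15 min at 25° C. Percent inhibition from slope of linear fluorescence change versus no-compound control.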

## C=C[C@@H]1C[C@]1(NC(=O)[C@@H]1C[C@@H](Oc2nccc3cccc(C)c23)CN1C(=O)[C@@H](NC(=O)OC(C)(C)C)C(C)(C)C)C(=O)NS(=O)(=O)C1CC1 [Compound 263]
[1]
  EC50: 100 to 1000 nM
[2]
  IC50: 100 to 1000 nM

## C=C[C@@H]1C[C@]1(NC(=O)[C@@H]1C[C@@H](Oc2nccc3cccc(OC)c23)CN1C(=O)[C@@H](NC(=O)OC(C)(C)C)C(C)(C)C)C(=O)NS(=O)(=O)C1CC1 [Compound 264]
[1]
  EC50: 1000 to 10000 nM
[2]
  IC50: 100 to 1000 nM

## C=C[C@@H]1C[C@]1(NC(=O)[C@@H]1C[C@@H](Oc2nccc3c4c(ccc23)CCO4)CN1C(=O)[C@@H](NC(=O)OC(C)(C)C)C(C)(C)C)C(=O)NS(=O)(=O)C1CC1 [Compound 265]
[1]
  EC50: < 100 nM
[2]
  IC50: < 100 nM

## C=C[C@@H]1C[C@]1(NC(=O)[C@@H]1C[C@@H](Oc2nccc3c2ccc2ccoc23)CN1C(=O)[C@@H](NC(=O)OC(C)(C)C)C(C)(C)C)C(=O)NS(=O)(=O)C1CC1 [Compound 266]
[1]
  EC50: < 100 nM
[2]
  IC50: < 100 nM

## C=C[C@@H]1C[C@]1(NC(=O)[C@@H]1C[C@@H](Oc2nccc3c4c(ccc23)OCC4)CN1C(=O)[C@@H](NC(=O)OC(C)(C)C)C(C)(C)C)C(=O)NS(=O)(=O)C1CC1 [Compound 267]
[1]
  EC50: < 100 nM
[2]
  IC50: < 100 nM

## C=C[C@@H]1C[C@]1(NC(=O)[C@@H]1C[C@@H](Oc2nccc3c2ccc2occc23)CN1C(=O)[C@@H](NC(=O)OC(C)(C)C)C(C)(C)C)C(=O)NS(=O)(=O)C1CC1 [Compound 268]
[1]
  EC50: < 100 nM
[2]
  IC50: < 100 nM

## C=C[C@@H]1C[C@]1(NC(=O)[C@@H]1C[C@@H](Oc2nccc3c(OC(F)(F)F)cccc23)CN1C(=O)[C@@H](NC(=O)OC(C)(C)C)C(C)(C)C)C(=O)NS(=O)(=O)C1CC1 [Compound 269]
[1]
  EC50: 100 to 1000 nM
[2]
  IC50: < 100 nM

## C=C[C@@H]1C[C@]1(NC(=O)[C@@H]1C[C@@H](Oc2nccc3c(C(F)(F)F)cccc23)CN1C(=O)[C@@H](NC(=O)OC(C)(C)C)C(C)(C)C)C(=O)NS(=O)(=O)C1CC1 [Compound 270]
[1]
  EC50: 100 to 1000 nM
[2]
  IC50: < 100 nM

## C=C[C@@H]1C[C@]1(NC(=O)[C@@H]1C[C@@H](Oc2nccc3c(N4CCOCC4)cccc23)CN1C(=O)[C@@H](NC(=O)OC(C)(C)C)C(C)(C)C)C(=O)NS(=O)(=O)C1CC1 [Compound 271]
[1]
  EC50: 100 to 1000 nM
[2]
  IC50: < 100 nM

## C=C[C@@H]1C[C@]1(NC(=O)[C@@H]1C[C@@H](Oc2nccc3c(OC)c(OC)ccc23)CN1C(=O)[C@@H](NC(=O)OC(C)(C)C)C(C)(C)C)C(=O)NS(=O)(=O)C1CC1 [Compound 272]
[1]
  EC50: < 100 nM
[2]
  IC50: < 100 nM

## C=C[C@@H]1C[C@]1(NC(=O)[C@@H]1C[C@@H](Oc2nccc3cc(OC)c(Cl)cc23)CN1C(=O)[C@@H](NC(=O)OC(C)(C)C)C(C)(C)C)C(=O)NS(=O)(=O)C1CC1 [Compound 273]
[1]
  EC50: < 100 nM
[2]
  IC50: < 100 nM

## C=C[C@@H]1C[C@]1(NC(=O)[C@@H]1C[C@@H](Oc2nccc3c(F)c(OC)ccc23)CN1C(=O)[C@@H](NC(=O)OC(C)(C)C)C(C)(C)C)C(=O)NS(=O)(=O)C1CC1 [Compound 274]
[1]
  EC50: 100 to 1000 nM
[2]
  IC50: < 100 nM

## C=C[C@@H]1C[C@]1(NC(=O)[C@@H]1C[C@@H](Oc2nccc3c(Cl)c(OC)ccc23)CN1C(=O)[C@@H](NC(=O)OC(C)(C)C)C(C)(C)C)C(=O)NS(=O)(=O)C1CC1 [Compound 275]
[1]
  EC50: < 100 nM
[2]
  IC50: < 100 nM

## C=C[C@@H]1C[C@]1(NC(=O)[C@@H]1C[C@@H](Oc2nccc3c(OC)c(Cl)ccc23)CN1C(=O)[C@@H](NC(=O)OC(C)(C)C)C(C)(C)C)C(=O)NS(=O)(=O)C1CC1 [Compound 276]
[1]
  EC50: < 100 nM
[2]
  IC50: < 100 nM

## C=C[C@@H]1C[C@]1(NC(=O)[C@@H]1C[C@@H](Oc2ncc(Cl)c3cc(OC)ccc23)CN1C(=O)[C@@H](NC(=O)OC(C)(C)C)C(C)(C)C)C(=O)NS(=O)(=O)C1CC1 [Compound 278]
[1]
  EC50: < 100 nM
[2]
  IC50: < 100 nM

## C=C[C@@H]1C[C@]1(NC(=O)[C@@H]1C[C@@H](Oc2ncc(OC)c3cc(OC)ccc23)CN1C(=O)[C@@H](NC(=O)OC(C)(C)C)C(C)(C)C)C(=O)NS(=O)(=O)C1CC1 [Compound 279]
[1]
  EC50: < 100 nM
[2]
  IC50: < 100 nM

## C=C[C@@H]1C[C@]1(NC(=O)[C@@H]1C[C@@H](Oc2nccc3cc(O)ccc23)CN1C(=O)[C@@H](NC(=O)OC(C)(C)C)C(C)(C)C)C(=O)NS(=O)(=O)C1CC1 [Compound 280]
[1]
  EC50: < 100 nM
[2]
  IC50: < 100 nM

## C=C[C@@H]1C[C@]1(NC(=O)[C@@H]1C[C@@H](Oc2ncc(Cl)c3ccccc23)CN1C(=O)[C@@H](NC(=O)OC(C)(C)C)C(C)(C)C)C(=O)NS(=O)(=O)C1CC1 [Compound 281]
[1]
  EC50: < 100 nM
[2]
  IC50: < 100 nM

## C=C[C@@H]1C[C@]1(NC(=O)[C@@H]1C[C@@H](Oc2nccc3cc(OC(F)(F)F)ccc23)CN1C(=O)[C@@H](NC(=O)OC(C)(C)C)C(C)(C)C)C(=O)NS(=O)(=O)C1CC1 [Compound 282]
[1]
  EC50: 100 to 1000 nM
[2]
  IC50: < 100 nM

## C=C[C@@H]1C[C@]1(NC(=O)[C@@H]1C[C@@H](Oc2ccc3c(OC)cnc(Cl)c3c2)CN1C(=O)[C@@H](NC(=O)OC(C)(C)C)C(C)(C)C)C(=O)NS(=O)(=O)C1CC1 [Compound 283]
[1]
  EC50: 100 to 1000 nM
[2]
  IC50: < 100 nM

## C=C[C@@H]1C[C@]1(NC(=O)[C@@H]1C[C@@H](Oc2ncc(Cl)c3ccc(OC)cc23)CN1C(=O)[C@@H](NC(=O)OC(C)(C)C)C(C)(C)C)C(=O)NS(=O)(=O)C1CC1 [Compound 284]
[1]
  EC50: 10000 to 100000 nM
[2]
  IC50: 100 to 1000 nM

## C=CC1CC1(NC(=O)C1CC(Oc2nccc3c(OC(F)F)cccc23)CN1C(=O)C(NC(=O)OC(C)(C)C)C(C)(C)C)C(=O)NS(=O)(=O)C1CC1 (stereo not shown) [Compound 285]
[1]
  EC50: < 100 nM
[2]
  IC50: < 100 nM

## C=C[C@@H]1C[C@]1(NC(=O)[C@@H]1C[C@@H](Oc2nccc3c4c(ccc23)OCCO4)CN1C(=O)[C@@H](NC(=O)OC(C)(C)C)C(C)(C)C)C(=O)NS(=O)(=O)C1CC1 [Compound 286]
[1]
  EC50: < 100 nM
[2]
  IC50: < 100 nM

## C=C[C@@H]1C[C@]1(NC(=O)[C@@H]1C[C@@H](Oc2nccc3c4c(ccc23)OC(F)(F)O4)CN1C(=O)[C@@H](NC(=O)OC(C)(C)C)C(C)(C)C)C(=O)NS(=O)(=O)C1CC1 [Compound 287]
[1]
  EC50: 100 to 1000 nM
[2]
  IC50: < 100 nM

## C=C[C@@H]1C[C@]1(NC(=O)[C@@H]1C[C@@H](Oc2nccc3cc4c(cc23)OC(F)(F)O4)CN1C(=O)[C@@H](NC(=O)OC(C)(C)C)C(C)(C)C)C(=O)NS(=O)(=O)C1CC1 [Compound 288]
[1]
  EC50: 1000 to 10000 nM
[2]
  IC50: < 100 nM

## CC[C@@H]1C[C@]1(NC(=O)[C@@H]1C[C@@H](Oc2nccc3c4c(ccc23)OC(F)(F)O4)CN1C(=O)[C@@H](NC(=O)OC(C)(C)C)C(C)(C)C)C(=O)NS(=O)(=O)C1CC1 [Compound 289]
[1]
  EC50: 100 to 1000 nM
[2]
  IC50: < 100 nM

## CC[C@@H]1C[C@]1(NC(=O)[C@@H]1C[C@@H](Oc2nccc3c4c(ccc23)OCCO4)CN1C(=O)[C@@H](NC(=O)OC(C)(C)C)C(C)(C)C)C(=O)NS(=O)(=O)C1CC1 [Compound 290]
[1]
  EC50: < 100 nM
[2]
  IC50: < 100 nM

## CC[C@@H]1C[C@]1(NC(=O)[C@@H]1C[C@@H](Oc2ncc(OC)c3ccccc23)CN1C(=O)[C@@H](NC(=O)OC(C)(C)C)C(C)(C)C)C(=O)NS(=O)(=O)C1CC1 [Compound 291]
[1]
  EC50: < 100 nM
[2]
  IC50: < 100 nM

## CC[C@@H]1C[C@]1(NC(=O)[C@@H]1C[C@@H](Oc2nccc3c(OC)cccc23)CN1C(=O)[C@@H](NC(=O)OC(C)(C)C)C(C)(C)C)C(=O)NS(=O)(=O)C1CC1 [Compound 292]
[1]
  EC50: 100 to 1000 nM
[2]
  IC50: < 100 nM

## CC[C@@H]1C[C@]1(NC(=O)[C@@H]1C[C@@H](Oc2nccc3c(C)cccc23)CN1C(=O)[C@@H](NC(=O)OC(C)(C)C)C(C)(C)C)C(=O)NS(=O)(=O)C1CC1 [Compound 293]
[1]
  EC50: 100 to 1000 nM
[2]
  IC50: < 100 nM

## CC[C@@H]1C[C@]1(NC(=O)[C@@H]1C[C@@H](Oc2nccc3c(Cl)cccc23)CN1C(=O)[C@@H](NC(=O)OC(C)(C)C)C(C)(C)C)C(=O)NS(=O)(=O)C1CC1 [Compound 294]
[1]
  EC50: 100 to 1000 nM
[2]
  IC50: < 100 nM

## CC[C@@H]1C[C@]1(NC(=O)[C@@H]1C[C@@H](Oc2nccc3c(C(F)(F)F)cccc23)CN1C(=O)[C@@H](NC(=O)OC(C)(C)C)C(C)(C)C)C(=O)NS(=O)(=O)C1CC1 [Compound 295]
[1]
  EC50: 1000 to 10000 nM
[2]
  IC50: 100 to 1000 nM

## CC[C@@H]1C[C@]1(NC(=O)[C@@H]1C[C@@H](Oc2nccc3ccc(C)cc23)CN1C(=O)[C@@H](NC(=O)OC(C)(C)C)C(C)(C)C)C(=O)NS(=O)(=O)C1CC1 [Compound 296]
[1]
  EC50: 100 to 1000 nM
[2]
  IC50: < 100 nM

## CC[C@@H]1C[C@]1(NC(=O)[C@@H]1C[C@@H](Oc2nccc3cccc(C)c23)CN1C(=O)[C@@H](NC(=O)OC(C)(C)C)C(C)(C)C)C(=O)NS(=O)(=O)C1CC1 [Compound 297]
[1]
  EC50: 1000 to 10000 nM
[2]
  IC50: 100 to 1000 nM

## CC[C@@H]1C[C@]1(NC(=O)[C@@H]1C[C@@H](Oc2nccc3cc(OC)c(F)cc23)CN1C(=O)[C@@H](NC(=O)OC(C)(C)C)C(C)(C)C)C(=O)NS(=O)(=O)C1CC1 [Compound 298]
[1]
  EC50: < 100 nM
[2]
  IC50: < 100 nM

## CC[C@@H]1C[C@]1(NC(=O)[C@@H]1C[C@@H](Oc2nccc3c(F)c(OC)ccc23)CN1C(=O)[C@@H](NC(=O)OC(C)(C)C)C(C)(C)C)C(=O)NS(=O)(=O)C1CC1 [Compound 299]
[1]
  EC50: 100 to 1000 nM
[2]
  IC50: < 100 nM

## CC[C@@H]1C[C@]1(NC(=O)[C@@H]1C[C@@H](Oc2cc3c(Cl)nccc3cc2OC)CN1C(=O)[C@@H](NC(=O)OC(C)(C)C)C(C)(C)C)C(=O)NS(=O)(=O)C1CC1 [Compound 300]
[1]
  EC50: 100 to 1000 nM
[2]
  IC50: < 100 nM

## C=CC1C[C@]1(NC(=O)[C@@H]1C[C@@H](Oc2nc(-c3ccccn3)cc3cc(OC)ccc23)CN1C(=O)[C@@H](NC(=O)OC(C)(C)C)C(C)(C)C)C(=O)NS(=O)(=O)C1CC1 (stereo partly shown) [Compound 320]
[1]
  EC50: < 100 nM
[2]
  IC50: < 100 nM
